This assay relates to BDF1 mice, P388 leukemia ip, median survival T/C. Put plainly: NCI In Vivo Anticancer Drug Screen. Data for tumor model P388 Leukemia (intraperitoneal) in B6D2F1 (BDF1) mice. As to conditions: endpoint: median survival time, higher = longer survival. The method in brief:
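Mice carrying the transplantable tumour receive compound or vehicle. Survival is followed in each arm, and the treated measure is divided by the vehicle measure.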

The mark [1] stands for this setting: dose: 100.0 mg/kg/injection, schedule: Q01DX009 (ip), vehicle: saline with Tween-80.
The mark [2] stands for this setting: dose: 200.0 mg/kg/injection, schedule: Q01DX009 (ip), vehicle: saline with Tween-80.
Where [3] appears, read: dose: 100.0 mg/kg/injection, schedule: Q04DX002 (ip), vehicle: saline with Tween-80.
The mark [4] stands for this setting: dose: 6.25 mg/kg/injection, schedule: Q01DX009 (ip), vehicle: water.

“And” between values parts separate entries of the source, which are not always exact repeats. Equal values may be shown once. Inconclusive results and toxic doses are left out. Starred links: 1 amine or outer side, 2 acyl side, 3 side chain; linkers in the order of their positions; H or OH if unused. Positions of bridges follow the written chain, without caps; N, C: chain ends. Non-standard residues stand in square brackets, D forms with d. Residues, ends and D or L forms follow the SMILES beside them. Chains are numbered I, II in the order given. Actinocin(9to1) = Cc1c2oc3c(C)ccc(C(=O)[*:1])c3nc-2c(C(=O)[*:2])c(N)c1=O; NMeV = CN[CH](C(=O)O)C(C)C; Aze = O=C(O)[CH]1CCN1; Sar = CNCC(=O)O

As for `Cc1c2oc3c(C)ccc(C(=O)NC4C(=O)NC(C(C)C)C(=O)N5CCC5C(=O)N(C)CC(=O)N(C)C(C(C)C)C(=O)OC4C)c3nc-2c(C(=O)NC2C(=O)NC(C(C)C)C(=O)N3CCC3C(=O)N(C)CC(=O)N(C)C(C(C)C)C(=O)OC2C)c(N)c1=O` (configuration not stated) (I: TV[Aze][Sar][NMeV] / II: TV[Aze][Sar][NMeV]; ester I:1-I:C, II:1-II:C; linker I:N-II:N via Actinocin(9to1); configuration not given here), the T/C is, setting by setting: (dose: 0.26 mg/kg/injection, schedule: Q04DX003 (ip), vehicle: saline) 226 % of control; (dose: 0.4 mg/kg/injection, schedule: Q04DX003 (ip), vehicle: saline) 180 % of control; (dose: 0.6 mg/kg/injection, schedule: Q04DX003 (ip), vehicle: saline) 319 % of control; (dose: 12.5 micrograms/kg/injection, schedule: Q01DX009 (ip), vehicle: saline + alcohol) 190 % of control; (dose: 25.0 micrograms/kg/injection, schedule: Q01DX009 (ip), vehicle: saline + alcohol) 197 % of control; (dose: 50.0 micrograms/kg/injection, schedule: Q01DX009 (ip), vehicle: saline + alcohol) 239 % of control. Further, the T/C runs as follows: (dose: 75.0 micrograms/kg/injection, schedule: Q01DX009 (ip), vehicle: saline + alcohol) 237 % of control; (dose: 100.0 micrograms/kg/injection, schedule: Q01DX009 (ip), vehicle: saline + alcohol) 260 % of control; (dose: 112.5 micrograms/kg/injection, schedule: Q01DX009 (ip), vehicle: saline + alcohol) 274 % of control; (dose: 150.0 micrograms/kg/injection, schedule: Q01DX009 (ip), vehicle: saline + alcohol) 274 % of control; (dose: 150.0 micrograms/kg/injection, schedule: Q04DX003 (ip), vehicle: saline + alcohol) 218 % of control; (dose: 200.0 micrograms/kg/injection, schedule: Q01DX009 (ip), vehicle: saline + alcohol) 166 % of control. The T/C was 207 % of control (dose: 216.0 micrograms/kg/injection, schedule: Q04DX003 (ip), vehicle: saline + alcohol); 108 % of control (dose: 225.0 micrograms/kg/injection, schedule: Q01DX009 (ip), vehicle: saline + alcohol); 212 % of control (dose: 225.0 micrograms/kg/injection, schedule: Q04DX003 (ip), vehicle: saline + alcohol); 113 % of control (dose: 300.0 micrograms/kg/injection, schedule: Q01DX009 (ip), vehicle: saline + alcohol); 225 % of control (dose: 360.0 micrograms/kg/injection, schedule: Q04DX003 (ip), vehicle: saline + alcohol); 238 % of control and 336 % of control (dose: 450.0 micrograms/kg/injection, schedule: Q04DX003 (ip), vehicle: saline + alcohol). The T/C is 88 % of control and 117 % of control (dose: 900.0 micrograms/kg/injection, schedule: Q04DX003 (ip), vehicle: saline + alcohol); 97 % of control (dose: 1000.0 micrograms/kg/injection, schedule: Q04DX003 (ip), vehicle: saline + alcohol); 102 % of control (dose: 1200.0 micrograms/kg/injection, schedule: Q04DX003 (ip), vehicle: saline + alcohol).

Turning to `CC(C)=CC=O`, the T/C was 100 % of control (dose: 100.0 mg/kg/injection, schedule: Q01DX001 (ip), vehicle: saline with Tween-80); 96 % of control (dose: 200.0 mg/kg/injection, schedule: Q01DX001 (ip), vehicle: saline with Tween-80); 100 % of control (dose: 400.0 mg/kg/injection, schedule: Q01DX001 (ip), vehicle: saline with Tween-80).

As for `O=C1NN(CCO)C(=S)Nc2ccccc21`, the T/C is 100 % of control (dose: 50.0 mg/kg/injection, schedule: Q01DX009 (ip), vehicle: Klucel (hydroxypropylcellulose) (HPC)); 100 % of control (dose: 100.0 mg/kg/injection, schedule: Q01DX009 (ip), vehicle: Klucel (hydroxypropylcellulose) (HPC)); 90 % of control (dose: 200.0 mg/kg/injection, schedule: Q01DX009 (ip), vehicle: Klucel (hydroxypropylcellulose) (HPC)).

`CO[C@H](C)[C@@](O)(C(=O)OCC1=CCN2CCC[C@@H]12)C(C)C`: the T/C (dose: 20.0 mg/kg/injection, schedule: Q01DX010 (ip), vehicle: carboxymethylcellulose (CMC)) is 95 % of control; the T/C (dose: 40.0 mg/kg/injection, schedule: Q01DX010 (ip), vehicle: carboxymethylcellulose (CMC)) was 115 % of control; the T/C (dose: 80.0 mg/kg/injection, schedule: Q01DX010 (ip), vehicle: carboxymethylcellulose (CMC)) was 110 % of control.

On to `O=C(NC(=S)N1CCOCC1)c1ccccc1`, for which the T/C is 100 % of control (dose: 50.0 mg/kg/injection, schedule: Q01DX009 (ip), vehicle: saline with Tween-80); 90 % of control under setting [1]; 100 % of control under setting [2]; 97 % of control (dose: 400.0 mg/kg/injection, schedule: Q01DX009 (ip), vehicle: saline with Tween-80).

Regarding `CCOC(=O)C(=O)CC(=O)/C=C/c1ccccc1`, the T/C under setting [1] is 96 % of control and the T/C under setting [2] is 107 % of control.

For the molecule `CCN(CC)CC(O)CNC(=O)c1c2nc3c(C(=O)NCC(O)CN(CC)CC)ccc(C)c3oc-2c(C)c(=O)c1N` (configuration not stated), the T/C (dose: 50.0 mg/kg/injection, schedule: Q04DX002 (ip), vehicle: saline with Tween-80) is 110 % of control; the T/C under setting [3] was 106 % of control and 120 % of control.

On to `CC(C)=CCC(OC(=O)C=C(C)C)C1=CC(=O)c2c(O)ccc(O)c2C1=O` (configuration not stated), for which the T/C is 100 % of control (dose: 1.25 mg/kg/injection, schedule: Q01DX009 (ip), vehicle: carboxymethylcellulose (CMC)); 95 % of control (dose: 2.5 mg/kg/injection, schedule: Q01DX009 (ip), vehicle: carboxymethylcellulose (CMC)); 118 % of control (dose: 3.12 mg/kg/injection, schedule: Q01DX009 (ip), vehicle: water); 113 % of control under setting [4]; 122 % of control (dose: 6.25 mg/kg/injection, schedule: Q04DX003 (ip), vehicle: water); 122 % of control (dose: 12.5 mg/kg/injection, schedule: Q04DX003 (ip), vehicle: water).

With `CCN(CC)CCOC(=O)c1ccccc1N(c1ccccc1)c1ccccc1`, the T/C (dose: 62.5 mg/kg/injection, schedule: Q01DX009 (ip), vehicle: Klucel (hydroxypropylcellulose) (HPC)) was 118 % of control and the T/C (dose: 125.0 mg/kg/injection, schedule: Q01DX009 (ip), vehicle: Klucel (hydroxypropylcellulose) (HPC)) is 118 % of control.

Regarding `CC(=O)n1cc(CCC(=O)O)c2ccccc21`, the T/C is, setting by setting: under setting [3], 106 % of control; (dose: 200.0 mg/kg/injection, schedule: Q04DX002 (ip), vehicle: saline with Tween-80) 101 % of control; (dose: 400.0 mg/kg/injection, schedule: Q04DX002 (ip), vehicle: saline with Tween-80) 102 % of control.

`O=C1c2ccccc2C(=O)N1CC[P+](c1ccc(Cl)cc1)(c1ccc(Cl)cc1)c1ccc(Cl)cc1`: the T/C is 103 % of control (dose: 0.78 mg/kg/injection, schedule: Q01DX009 (ip), vehicle: water); 103 % of control (dose: 1.56 mg/kg/injection, schedule: Q01DX009 (ip), vehicle: water); 103 % of control (dose: 3.13 mg/kg/injection, schedule: Q01DX009 (ip), vehicle: water); 110 % of control under setting [4]; 103 % of control (dose: 12.5 mg/kg/injection, schedule: Q01DX009 (ip), vehicle: water); 103 % of control (dose: 25.0 mg/kg/injection, schedule: Q01DX009 (ip), vehicle: water).

As for `NNc1cc(N)[nH]n1`, the T/C reads like this: (dose: 12.5 mg/kg/injection, schedule: Q01DX009 (ip), vehicle: saline) 106 % of control; (dose: 25.0 mg/kg/injection, schedule: Q01DX009 (ip), vehicle: saline) 100 % of control; (dose: 50.0 mg/kg/injection, schedule: Q01DX009 (ip), vehicle: saline) 100 % of control; (dose: 100.0 mg/kg/injection, schedule: Q01DX009 (ip), vehicle: saline) 93 % of control.

In the case of `Cn1c(=O)c2[nH]c(CN(CCCl)CCCl)nc2n(C)c1=O`, the T/C reads like this: (dose: 0.88 mg/kg/injection, schedule: Q04DX003 (ip), vehicle: saline with Tween-80) 100 % of control; (dose: 1.32 mg/kg/injection, schedule: Q04DX003 (ip), vehicle: saline with Tween-80) 109 % of control; (dose: 2.0 mg/kg/injection, schedule: Q04DX003 (ip), vehicle: saline with Tween-80) 119 % of control; (dose: 2.4 mg/kg/injection, schedule: Q01DX009 (ip), vehicle: saline with Tween-80) 154 % of control; (dose: 3.7 mg/kg/injection, schedule: Q01DX009 (ip), vehicle: saline with Tween-80) 160 % of control; (dose: 5.56 mg/kg/injection, schedule: Q01DX009 (ip), vehicle: saline with Tween-80) 163 % of control and 178 % of control. In addition, the T/C by setting is: (dose: 8.33 mg/kg/injection, schedule: Q01DX009 (ip), vehicle: saline with Tween-80) 172 % of control; (dose: 12.5 mg/kg/injection, schedule: Q01DX009 (ip), vehicle: saline with Tween-80) 201 % of control.

Values taken from PubChem BioAssay AID328 (DTP/NCI, 2004).
